# According to patent US20060147411A1, “Novel compounds for the treatment of sickle cell disease” (University of Maryland, Baltimore, priority 2003, published 2006):
# How the values were obtained:
# [1] = target: cytochrome b5; conditions: read-out: affinity of binding to cytochrome b5; cited from earlier work
# [2] = target: cytochrome b5 (Rattus norvegicus, UniProt P00173); assay: HSQC perturbation mapping: concentration dependence of hexacyclen-induced heteronuclear correlation peak shifts; format: binding; conditions: 1H-15N HSQC peak shifts, hexacyclen 0.5 to 8 mM, pH 7.0, 1 mM phosphate buffer, 40° C; read-out: dissociation constant
# Chain of cytochrome b5 (Rattus norvegicus, UniProt P00173) (P00173 whole entry): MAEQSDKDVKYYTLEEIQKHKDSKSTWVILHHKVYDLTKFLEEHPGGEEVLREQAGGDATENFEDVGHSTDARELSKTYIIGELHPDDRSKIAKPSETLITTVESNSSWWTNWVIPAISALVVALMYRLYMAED
# Method: Hexacyclen (1,4,7,10,13,16-hexaazacyclooctadecane)(Richman, J. E.; Atkins, T. J. 1974, J. Am. Chem. Soc., 96, 2268-2269) binds to cytochrome b5 such the HSQC spectra of cytochrome b5-hexacyclen is similar to the HSQC spectra of cytochrome b5-hemoglobin. The concentration dependence of hexacyclen-induced heteronuclear correlation peak shifts indicates a dissociation constant of roughly 2 mM. FIG. 2 illustrates the heteronuclear correlation spectra (HSQC spectra) of a 2 mM solution of cytochrome b5 by itself (black contours) and that of a solution containing 2 mM cytochrome b5 and 4 mM hexacyclen (gray contours). The inset in the upper left hand corner of the figure contains a plot of the hexacyclen dependence of the shifts in the peak to peak separation of aspartate 60 (D60) at concentrations of hexacylen ranging from 0.5 to 8 mM. The inset at the upper right is a model for the interaction of hexacyclen based on the shifts observed in the HSQC perturbation study. Solutions were buffered to a pH of 7.0 with 1 mM phosphate buffer and the spectra were recorded at 40° C. […]
# The binding of the R1 and R3 moieties to cytochrome b5 is characterized using HSQC perturbation mapping experiments. […] Solutions were buffered to a pH of 7.0 with 1 mM phosphate buffer and the spectra were recorded at 40° C. […]
# [3] = test system: sickle cell patients; conditions: nearly 300 sickle cell patients; cited from earlier work
smiles,measurement,setting,value
"Nc1ncnc2c1ncn2[C@H]1O[C@@H](COP(=O)(O)OP(=O)(O)OP(=O)(O)O)C(O)C1O (stereo partly drawn) [ATP, Adenosine 5′-triphosphate]",Kd,[1],180 µM
"C1CNCCNCCNCCNCCNCCN1 [Hexacyclen, 1,4,7,10,13,16-hexaazacyclooctadecane]",Kd,[2],~2000 µM
NC(=O)NO [hydroxyurea],"occurrence of vaso-occlusive crises, reduced to % of that observed",[3],roughly 50%
